17 compounds from patent US20170355705A1 (GlaxoSmithKline Intellectual Property (No.2) Limited, priority 2014, published 2017) can be followed below.

This test addresses T1, SIRT1 (Homo sapiens, UniProt Q96EB6).
T1 sequence (Q96EB6 1-747): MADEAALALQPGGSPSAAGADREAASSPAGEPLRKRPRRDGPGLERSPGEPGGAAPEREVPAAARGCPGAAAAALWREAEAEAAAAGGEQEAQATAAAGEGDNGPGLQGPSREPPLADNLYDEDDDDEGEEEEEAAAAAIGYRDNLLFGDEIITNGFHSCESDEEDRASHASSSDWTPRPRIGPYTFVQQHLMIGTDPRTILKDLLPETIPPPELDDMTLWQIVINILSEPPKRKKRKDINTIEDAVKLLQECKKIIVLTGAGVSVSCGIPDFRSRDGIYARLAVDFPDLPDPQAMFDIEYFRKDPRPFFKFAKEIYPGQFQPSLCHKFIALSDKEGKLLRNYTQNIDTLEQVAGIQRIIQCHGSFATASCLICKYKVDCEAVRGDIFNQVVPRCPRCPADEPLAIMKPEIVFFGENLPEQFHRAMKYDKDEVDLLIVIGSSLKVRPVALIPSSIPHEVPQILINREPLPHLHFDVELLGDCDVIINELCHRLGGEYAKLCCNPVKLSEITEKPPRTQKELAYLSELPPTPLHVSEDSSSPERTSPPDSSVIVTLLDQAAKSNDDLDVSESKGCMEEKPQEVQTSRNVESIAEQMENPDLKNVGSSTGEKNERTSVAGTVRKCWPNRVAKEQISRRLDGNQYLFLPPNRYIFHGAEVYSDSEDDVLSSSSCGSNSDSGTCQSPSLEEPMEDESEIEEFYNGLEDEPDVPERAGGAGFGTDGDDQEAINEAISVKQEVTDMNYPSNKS
The experiment in a line: Trp mass spectrometry assay of SIRT1 activity (EC1.5, percent maximum activation). Format: biochemical. Particulars: Trp mass spectrometry assay; for TRP Activity (EC1.5): EC1.5 = concentration giving 150% activation of SIRT1; for TRP MAX RESP (percent maximum fold activation): percent maximum activation of SIRT1. In outline: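 Mass spectrometry read-out (OAADPR formed, or deacetylated Trp peptide) after a 25 min NAD-dependent deacetylation by E. coli-expressed His-SIRT1, stopped with formic acid.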

Turning to `O=C(Nc1cncc(OCCCO)n1)N1c2nc(-c3cccc(C(F)(F)F)c3)c(Cl)cc2N2CC[C@H]1C2` [Example 73, (4S)-8-chloro-N-(6-(3-hydroxypropoxy)pyrazin-2-yl)-7-(3-(trifluoromethyl)phenyl)-3,4-dihydro-1,4-methanopyrido[2,3-b][1,4]diazepine-5(2H)-carboxamide], the “TRP Activity (EC1.5)” value is given as “A (EC1.5<1 μM)” and the “TRP MAX RESP (percent maximum fold activation)” value is recorded as “A (Fold activation ≧150%)”.
In the case of `O=C(Nc1cc(OC[C@@H](O)CO)ncn1)N1c2nc(-c3cccc(C(F)(F)F)c3)c(Cl)cc2N2CC[C@H]1C2` [Example 75, (4S)-8-chloro-N-(6-((S)-2,3-dihydroxypropoxy)pyrimidin-4-yl)-7-(3-(trifluoromethyl)phenyl)-3,4-dihydro-1,4-methanopyrido[2,3-b][1,4]diazepine-5(2H)-carboxamide], the “TRP Activity (EC1.5)” value is reported as “B (EC1.5 1-25 μM)” and the “TRP MAX RESP (percent maximum fold activation)” value is listed as “A (Fold activation ≧150%)”.
On the same counts, the results for `O=C(Nc1ccc(OC[C@H](O)CO)cn1)N1c2nc(-c3cccc(C(F)(F)F)c3)c(Cl)cc2N2CC[C@H]1C2` [Example 76, (4S)-8-chloro-N-(5-((R)-2,3-dihydroxypropoxy)pyridin-2-yl)-7-(3-(trifluoromethyl)phenyl)-3,4-dihydro-1,4-methanopyrido[2,3-b][1,4]diazepine-5(2H)-carboxamide] are “A (EC1.5<1 μM)” and “A (Fold activation ≧150%)”.
On the same counts, the results for `O=C(Nc1ccc(OC[C@H](O)CO)nc1)N1c2nc(-c3cccc(C(F)(F)F)c3)c(Cl)cc2N2CC[C@H]1C2` [Example 77, (4S)-8-chloro-N-(6-((R)-2,3-dihydroxypropoxy)pyridin-3-yl)-7-(3-(trifluoromethyl)phenyl)-3,4-dihydro-1,4-methanopyrido[2,3-b][1,4]diazepine-5(2H)-carboxamide] are “A (EC1.5<1 μM)” and “A (Fold activation ≧150%)”.
For the compound `O=C(Nc1cncc(OC[C@@H](O)CO)c1)N1c2nc(-c3cccc(C(F)(F)F)c3)c(Cl)cc2N2CC[C@H]1C2` [Example 78, (4S)-8-chloro-N-(5-((S)-2,3-dihydroxypropoxy)pyridin-3-yl)-7-(3-(trifluoromethyl)phenyl)-3,4-dihydro-1,4-methanopyrido[2,3-b][1,4]diazepine-5(2H)-carboxamide], the “TRP Activity (EC1.5)” value was “A (EC1.5<1 μM)” and the “TRP MAX RESP (percent maximum fold activation)” value is listed as “A (Fold activation ≧150%)”.
Regarding `O=C(Nc1cccc(OCCO)n1)N1c2nc(-c3cccc(C(F)(F)F)c3)c(Cl)cc2N2CC[C@H]1C2` [Example 79, (4S)-8-chloro-N-(6-(2-hydroxyethoxy)pyridin-2-yl)-7-(3-(trifluoromethyl)phenyl)-3,4-dihydro-1,4-methanopyrido[2,3-b][1,4]diazepine-5(2H)-carboxamide], the “TRP Activity (EC1.5)” value was “A (EC1.5<1 μM)” and the “TRP MAX RESP (percent maximum fold activation)” value is on record as “A (Fold activation ≧150%)”.
In the same order, the values of `O=C(Nc1cnc(OC[C@@H](O)CO)nc1)N1c2nc(-c3cccc(C(F)(F)F)c3)c(Cl)cc2N2CC[C@H]1C2` [Example 80, (4S)-8-chloro-N-(2-((S)-2,3-dihydroxypropoxy)pyrimidin-5-yl)-7-(3-(trifluoromethyl)phenyl)-3,4-dihydro-1,4-methanopyrido[2,3-b][1,4]diazepine-5(2H)-carboxamide] are “A (EC1.5<1 μM)” and “A (Fold activation ≧150%)”.
On the same counts, the results for `O=C(Nc1ccc(OC[C@@H](O)CO)cn1)N1c2nc(-c3cccc(C(F)(F)F)c3)c(Cl)cc2N2CC[C@H]1C2` [Example 81, (4S)-8-chloro-N-(5-((S)-2,3-dihydroxypropoxy)pyridin-2-yl)-7-(3-(trifluoromethyl)phenyl)-3,4-dihydro-1,4-methanopyrido[2,3-b][1,4]diazepine-5(2H)-carboxamide] are “B (EC1.5 1-25 μM)” and “A (Fold activation ≧150%)”.
On the same counts, the results for `O=C(Nc1ncc(OC[C@H](O)CO)cn1)N1c2nc(-c3cccc(C(F)(F)F)c3)c(Cl)cc2N2CC[C@H]1C2` [Example 82, (4S)-8-chloro-N-(5-((R)-2,3-dihydroxypropoxy)pyrimidin-2-yl)-7-(3-(trifluoromethyl)phenyl)-3,4-dihydro-1,4-methanopyrido[2,3-b][1,4]diazepine-5(2H)-carboxamide] are “B (EC1.5 1-25 μM)” and “A (Fold activation ≧150%)”.
As to `O=C(Nc1ncc(OC[C@@H](O)CO)cn1)N1c2nc(-c3cccc(C(F)(F)F)c3)c(Cl)cc2N2CC[C@H]1C2` [Example 83, (4S)-8-chloro-N-(5-((S)-2,3-dihydroxypropoxy)pyrimidin-2-yl)-7-(3-(trifluoromethyl)phenyl)-3,4-dihydro-1,4-methanopyrido[2,3-b][1,4]diazepine-5(2H)-carboxamide], the “TRP Activity (EC1.5)” value is reported as “B (EC1.5 1-25 μM)” and the “TRP MAX RESP (percent maximum fold activation)” value was “A (Fold activation ≧150%)”.
Take `Cc1cc(-c2cc(C)c3c(n2)N(C(=O)Nc2cccnc2)[C@H]2CCN3C2)ccn1` [Example 84, (4S)-9-methyl-7-(2-methylpyridin-4-yl)-N-(pyridin-3-yl)-3,4-dihydro-1,4-methanopyrido[2,3-b][1,4]diazepine-5(2H)-carboxamide]: the “TRP Activity (EC1.5)” value is “A (EC1.5<1 μM)” and the “TRP MAX RESP (percent maximum fold activation)” value is listed as “A (Fold activation ≧150%)”.
Take `Cc1ncc(-c2ccnc(NC(=O)N3c4nc(-c5cccc(C(F)(F)F)c5)cc(C)c4N4CC[C@H]3C4)c2)o1` [Example 86, (4S)-9-methyl-N-(4-(2-methyloxazol-5-yl)pyridin-2-yl)-7-(3-(trifluoromethyl)phenyl)-3,4-dihydro-1,4-methanopyrido[2,3-b][1,4]diazepine-5(2H)-carboxamide]: the “TRP Activity (EC1.5)” value is listed as “A (EC1.5<1 μM)” and the “TRP MAX RESP (percent maximum fold activation)” value is recorded as “A (Fold activation ≧150%)”.
Take `Cc1cc(-c2cccc(C(F)(F)F)c2)nc2c1N1CC[C@@H](C1)N2C(=O)Nc1ccnc(OC[C@@H](O)CO)c1` [Example 87, (4S)-N-(2-((S)-2,3-dihydroxypropoxy)pyridin-4-yl)-9-methyl-7-(3-(trifluoromethyl)phenyl)-3,4-dihydro-1,4-methanopyrido[2,3-b][1,4]diazepine-5(2H)-carboxamide]: the “TRP Activity (EC1.5)” value is “A (EC1.5<1 μM)” and the “TRP MAX RESP (percent maximum fold activation)” value is recorded as “A (Fold activation ≧150%)”.
Take `Cc1ccc2c(NC(=O)N3c4nc(-c5cccc(C(F)(F)F)c5)c(Cl)cc4N4CC[C@H]3C4)n[nH]c2n1` [Example 88, (4S)-8-chloro-N-(6-methyl-1H-pyrazolo[3,4-b]pyridin-3-yl)-7-(3-(trifluoromethyl)phenyl)-3,4-dihydro-1,4-methanopyrido[2,3-b][1,4]diazepine-5(2H)-carboxamide]: the “TRP Activity (EC1.5)” value is “A (EC1.5<1 μM)” and the “TRP MAX RESP (percent maximum fold activation)” value is listed as “A (Fold activation ≧150%)”.
`Cc1cc2c(nc1-c1cccc(C(F)F)c1)N(C(=O)Nc1ccnc(OC[C@@H](O)CO)c1)[C@H]1CCN2C1` [Example 89, (4S)-7-(3-(difluoromethyl)phenyl)-N-(2-((S)-2,3-dihydroxypropoxy)pyridin-4-yl)-8-methyl-3,4-dihydro-1,4-methanopyrido[2,3-b][1,4]diazepine-5(2H)-carboxamide]: the “TRP Activity (EC1.5)” value is “A (EC1.5<1 μM)” and the “TRP MAX RESP (percent maximum fold activation)” value is listed as “A (Fold activation ≧150%)”.
In the same order, the values of `CCn1cc(-c2nc3c(cc2Cl)N2CC[C@@H](C2)N3C(=O)Nc2ccnc(OC[C@H](O)CO)c2)cn1` [Example 90, (4S)-8-chloro-N-(2-((R)-2,3-dihydroxypropoxy)pyridin-4-yl)-7-(1-ethyl-1H-pyrazol-4-yl)-3,4-dihydro-1,4-methanopyrido[2,3-b][1,4]diazepine-5(2H)-carboxamide] are “B (EC1.5 1-25 μM)” and “A (Fold activation ≧150%)”.
As to `Cc1cc(-c2nc3c(c(C)c2C)N2CC[C@@H](C2)N3C(=O)Nc2cccnc2)ccn1` [Example 91, (4S)-8,9-dimethyl-7-(2-methylpyridin-4-yl)-N-(pyridin-3-yl)-3,4-dihydro-1,4-methanopyrido[2,3-b][1,4]diazepine-5(2H)-carboxamide], the “TRP Activity (EC1.5)” value is recorded as “B (EC1.5 1-25 μM)” and the “TRP MAX RESP (percent maximum fold activation)” value was “A (Fold activation ≧150%)”.
